For assay [1], the system named is Ova-specific OT-II TcR transgenic T cells. The assay can be described thus: Antigen-specific OT-II T cell proliferation after sublingual administration (cell-tracker dye, flow cytometry). The note with it: GLA 0.2 μg, OVa323-339 peptide 10 μg, four days later (FIGS. 4A, 4C, 4E). Type of assay: in vivo, mice. The protocol:
Ova-specific OT-II TcR transgenic T cells were labeled with cell-tracker violet dye and adoptively transferred into syngeneic wild type mice. Mice then received sublingual administration of GLA (0.2 μg) alone (FIGS. 4A and 4B), OVa323-339 peptide (10 μg) alone (FIGS. 4C and 4D), or GLA co-administered with Ova peptide (FIGS. 4E and 4F). Four days later, the draining cervical lymph nodes (FIGS. 4A, 4C, and 4E) and spleen (FIGS. 4B, 4D, and 4F) were removed and OT-II T cell proliferation (via the decrease in cell-tracker dye fluorescence) was measured by flow cytometry.
Methods. Sublingual administration was performed as described above in Example 1.
Formulations of Ova peptide and/or GLA included methylcellulose as described in Example 1. Mixtures of methylcellulose+Ova peptide, and methylcellulose+Ova peptide+GLA were prepared the day before dosing.
Ova-specific OT-II TcR transgenic T cells were labeled with cell-tracker violet dye and adoptively transferred into syngeneic wild type mice. Mice then received sublingual administration of GLA (0.2 μg, 0.02 μg or 0.002 μg) co-administered with OVa323-339 peptide or peptide without GLA (0 mg). Four days later, cervical lymph nodes were removed and OT-II T cell proliferation (via the decrease in cell-tracker dye fluorescence) was measured by flow cytometry.

The test system of the next assay is IL-6. The protocol: GLA was formulated in DPPC (1,2-dipalmitoyl-sn-glycero-3-phosphocholine) as GLA:DPPC 1:2 (M:M) in Millipore (sterile) water. Animals were sedated with ketamine (5 mg/kg to 10 mg/kg)/dexmedetomidine (0.01 mg/kg to 0.016 mg/kg), IM (intramuscularly), while in their cage. Once sedated, they were brought into the laboratory and placed onto a circulating water heating pad (Gaymar). Sublingual (right side) and left cheek pouch mucosal brushings were taken 15 minutes prior to dosing using Copan FLOQSwabs™ and placed into RLT buffer (QIAmp Minikit Plus, Qiagen), vortexed and immediately frozen on dry ice. Sublingual dosing of GLA (100 μl dosed via syringe) was performed under the right side of the animals tongue and allowed to absorb into the mucosa for three minutes. Further sublingual and cheek brushings were obtained at 6 hr, 24 hr and 48 hr post dosing.
RNA processing was performed from the cheek and sublingual swabs using a QIAmp Minikit Plus (Qiagen) which includes a gDNA (genomic DNA) eliminator column. Gene expression was quantified using the Comparative CT Method, which calculates the relative gene expression quantitation between a target gene and an endogenous control. All target genes were quantitated relative to the expression of the housekeeping gene ARL1. Using the relative expression, the fold of baseline expression was calculated as [(Relative gene expression at time point of interest)/(Baseline relative gene expression)].

Where [2] appears, read: six hours after sublingual administration.

The source of these data is patent US20160310589A1, “Glucopyranosyl Lipid A and Allergen Formulations For Sublingual Administration” (Sanofi, priority 2015, published 2016).

Where only a bound is given, the exact number is not on record here.

Turning to `CCCCCCCCCCCCCC(=O)O[C@H](CCCCCCCCCCC)CC(=O)O[C@@H]1[C@@H](NC(=O)C[C@H](CCCCCCCCCCC)OC(=O)CCCCCCCCCCCCC)[C@H](OC[C@H]2O[C@H](O)[C@H](NC(=O)C[C@H](O)CCCCCCCCCCC)[C@@H](OC(=O)C[C@H](O)CCCCCCCCCCC)[C@@H]2O)O[C@H](CO)[C@H]1OP(=O)(O)O` [GLA, Glucopyranosyl Lipid A], in assay [1], the “antigen-specific T cell proliferation in the draining cervical lymph nodes” value is listed as “not”. Besides, the “IL-6 expression 24 hours after sublingual administration” value in the assay with IL-6 (24 hours after sublingual administration) is “not detected”. Besides, the “duration of local action within the oral cavity” value in the assay on IL-6 (current formulation GLA:DPPC 1:2, sublingual) was no more than 1 days. In addition, in the assay on IL-6 (setting [2]), the “IL-6 in brushings from the cheek” value is reported as “not detected” and the “IL-6 in the blood” value is “not detected”. The “IL-6 expression in sublingual mucosal brushings” value with IL-6 (six hours after sublingual administration, 3 different doses of GLA) is reported as “dose-dependent expression of IL-6”.
For “OVa323-339 peptide: Ova peptide antigen recognised by OT-II TcR transgenic T cells (KISQAVHAAHAEINEAG; UniProt P01012 323-339, looked up, fragment)”, the “antigen-specific T cell proliferation in the draining cervical lymph nodes” value in assay [1] is listed as “not”.
